Data from the CheMixHub viscosity set.
± gives the uncertainty stated by the source.

Experiment: xn = mol fraction of the nth substance listed

CC1CCCCC1 + CCCCCO
303.15 K, 101.33 kPa
Conditions | viscosity [mPa·s]
x1 = 0.0947 | 2.283 ± 0.021
x1 = 0.2614 | 1.737 ± 0.016
x1 = 0.42 | 1.289 ± 0.012
x1 = 0.5783 | 0.968 ± 0.009
x1 = 0.7422 | 0.777 ± 0.007
x1 = 0.9027 | 0.663 ± 0.006
x2 = 0.1011 | 0.7025 ± 0.0092
x2 = 0.2073 | 0.7951 ± 0.01
x2 = 0.3017 | 0.8911 ± 0.011
x2 = 0.4214 | 1.039 ± 0.013
x2 = 0.4998 | 1.16 ± 0.014
x2 = 0.5988 | 1.325 ± 0.016
x2 = 0.7007 | 1.535 ± 0.018
x2 = 0.8084 | 1.852 ± 0.022
x2 = 0.9144 | 2.305 ± 0.027

CCCNCCC + CCCCCO
viscosity [mPa·s], 101.33 kPa
Conditions | x1 = 0.0952 | x1 = 0.1918 | x1 = 0.2881 | x1 = 0.3825 | x1 = 0.5157 | x1 = 0.616 | x1 = 0.7094 | x1 = 0.8061 | x1 = 0.9023
303.15 K | 2.51 ± 0.029 | 2.185 ± 0.026 | 1.875 ± 0.022 | 1.593 ± 0.019 | 1.244 ± 0.015 | 1.034 ± 0.013 | 0.8687 ± 0.011 | 0.7254 ± 0.0096 | 0.6098 ± 0.0083
313.15 K | 2.051 ± 0.024 | 1.767 ± 0.021 | 1.51 ± 0.018 | 1.281 ± 0.016 | 1.02 ± 0.013 | 0.8452 ± 0.011 | 0.7187 ± 0.0095 | 0.6045 ± 0.0083 | 0.5061 ± 0.0072

CCOC(=O)c1ccccc1 + CCCCCO
viscosity [mPa·s], 101.3 kPa
Conditions | x1 = 0.0771 | x1 = 0.1582 | x1 = 0.2437 | x1 = 0.3339 | x1 = 0.4292 | x1 = 0.53 | x1 = 0.6369 | x1 = 0.7504 | x1 = 0.8712
303 K | 2.883 ± 0.29 | 2.764 ± 0.28 | 2.656 ± 0.27 | 2.533 ± 0.25 | 2.404 ± 0.24 | 2.273 ± 0.23 | 2.135 ± 0.21 | 1.985 ± 0.2 | 1.865 ± 0.19
308 K | 2.541 ± 0.26 | 2.449 ± 0.25 | 2.349 ± 0.24 | 2.25 ± 0.23 | 2.154 ± 0.22 | 2.031 ± 0.2 | 1.92 ± 0.19 | 1.8 ± 0.18 | 1.691 ± 0.17
313 K | 2.224 ± 0.22 | 2.139 ± 0.21 | 2.051 ± 0.21 | 1.962 ± 0.2 | 1.875 ± 0.19 | 1.787 ± 0.18 | 1.701 ± 0.17 | 1.615 ± 0.16 | 1.528 ± 0.15
318 K | 2.005 ± 0.2 | 1.931 ± 0.19 | 1.86 ± 0.19 | 1.789 ± 0.18 | 1.723 ± 0.17 | 1.648 ± 0.17 | 1.56 ± 0.16 | 1.485 ± 0.15 | 1.41 ± 0.14
323 K | 1.798 ± 0.18 | 1.739 ± 0.17 | 1.68 ± 0.17 | 1.626 ± 0.16 | 1.569 ± 0.16 | 1.505 ± 0.15 | 1.439 ± 0.14 | 1.376 ± 0.14 | 1.313 ± 0.13

OC(c1ccccc1)(c1ccccc1)c1ccccc1 + CCCCCOC(C)=O
Conditions | viscosity [mPa·s]
298.15 K, 101 kPa, x2 = 0.5 | 1.9 ± 0.02

CC(C)O + CCCCO
298.15 K, 101 kPa
Conditions | viscosity [mPa·s]
x2 = 0.1026 | 2.057 ± 0.027
x2 = 0.2012 | 2.105 ± 0.028
x2 = 0.302 | 2.145 ± 0.028
x2 = 0.4045 | 2.207 ± 0.029
x2 = 0.5086 | 2.269 ± 0.03
x2 = 0.6002 | 2.327 ± 0.031
x2 = 0.734 | 2.402 ± 0.032
x2 = 0.7964 | 2.437 ± 0.032
x2 = 0.9021 | 2.506 ± 0.033

CCCCCl + CCCCO
viscosity [mPa·s], 101 kPa
Conditions | x1 = 0.0749 | x1 = 0.2028 | x1 = 0.3021 | x1 = 0.4122 | x1 = 0.5016 | x1 = 0.6048 | x1 = 0.7044 | x1 = 0.8062 | x1 = 0.9064
298.15 K | 2.121 ± 0.018 | 1.523 ± 0.013 | – | 0.9486 ± 0.0084 | – | 0.6572 ± 0.006 | 0.5679 ± 0.0052 | 0.4955 ± 0.0047 | 0.4465 ± 0.0043
313.15 K | 1.449 ± 0.014 | 1.081 ± 0.01 | 0.8789 ± 0.0083 | 0.7145 ± 0.0067 | 0.6192 ± 0.0058 | 0.5213 ± 0.005 | 0.4589 ± 0.0045 | 0.4114 ± 0.004 | 0.3742 ± 0.0038

CCOC(=O)[C@@H](O)[C@H](O)C(=O)OCC + CCCCO
viscosity [mPa·s], 101 kPa
Conditions | x1 = 0.0999 | x1 = 0.1999 | x1 = 0.3 | x1 = 0.4001 | x1 = 0.4999 | x1 = 0.5999 | x1 = 0.7001 | x1 = 0.8001 | x1 = 0.8999
293.15 K | 3.887 ± 0.027 | 5.56 ± 0.038 | 8.24 ± 0.057 | 12.44 ± 0.087 | 18.99 ± 0.14 | 29.36 ± 0.21 | 42.81 ± 0.32 | 68.14 ± 0.55 | 118.3 ± 1.5
298.15 K | 3.353 ± 0.023 | 4.704 ± 0.032 | 6.807 ± 0.047 | 9.946 ± 0.069 | 14.79 ± 0.11 | 22.09 ± 0.16 | 31.37 ± 0.23 | 47.6 ± 0.36 | 78.41 ± 0.72
303.15 K | 2.902 ± 0.02 | 3.987 ± 0.028 | 5.63 ± 0.039 | 8.08 ± 0.057 | 11.64 ± 0.083 | 16.9 ± 0.12 | 23.32 ± 0.17 | 34.35 ± 0.26 | 54.15 ± 0.39
308.15 K | 2.527 ± 0.018 | 3.408 ± 0.024 | 4.729 ± 0.033 | 6.627 ± 0.047 | 9.328 ± 0.066 | 13.22 ± 0.095 | 17.74 ± 0.13 | 25.53 ± 0.19 | 38.75 ± 0.3
313.15 K | 2.217 ± 0.016 | 2.928 ± 0.021 | 3.975 ± 0.028 | 5.454 ± 0.039 | 7.552 ± 0.054 | 10.48 ± 0.076 | 13.83 ± 0.1 | 19.41 ± 0.14 | 28.56 ± 0.22
318.15 K | 1.953 ± 0.014 | 2.557 ± 0.018 | 3.433 ± 0.025 | 4.631 ± 0.033 | 6.283 ± 0.045 | 8.549 ± 0.062 | 11.11 ± 0.082 | 15.2 ± 0.11 | 21.73 ± 0.17
323.15 K | 1.746 ± 0.013 | 2.26 ± 0.017 | 2.993 ± 0.022 | 3.98 ± 0.029 | 5.303 ± 0.038 | 7.092 ± 0.052 | 9.107 ± 0.067 | 12.19 ± 0.091 | 16.99 ± 0.13
